Results published in the supplement of paper PMC8253809.

Key:
DIPGX9 [1] = diffuse intrinsic pontine glioma line; experiment: maximal growth inhibition (yFin) relative to DMSO / staurosporine; higher = more efficacious
Method in brief: (§1)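 Treatment used a pin tool and a 10-point threefold dilution series, mean top concentration 35 μM, run in triplicate on patient-derived pHGG/DIPG cell lines and astrocyte controls in 1% Geltrex-coated 384-well plates. Plates were kept at 37 °C, 5% CO2 for 7 days (iAstro: 3 days). Log2-transformed CellTiter-Glo luminescence was scaled per plate to % activity between negative (solvent) and positive control wells and pooled before fitting. EC50 and maximal response (yFin) came from the three- or four-parameter log-logistic fit chosen by lowest AICc.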

DIPGX7 [2] = H3.3 K27M diffuse intrinsic pontine glioma line; experiment: as above
Method in brief: as §1

SUDIPGVI = diffuse intrinsic pontine glioma line; experiment: as above
Method in brief: as §1

DIPGX37 [3] = H3.3 K27M diffuse intrinsic pontine glioma line; experiment: as above
Method in brief: as §1

iAstro [4] = astrocyte control; experiment: as above
Method in brief: as §1

HGGX39 [5] = paediatric high-grade glioma line; experiment: as above
Method in brief: as §1

HABS [6] = astrocyte control; experiment: as above
Method in brief: as §1

DIPGX29 = H3.3 K27M diffuse intrinsic pontine glioma line; experiment: as above
Method in brief: as §1

SUDIPGXIII [7] = diffuse intrinsic pontine glioma line; experiment: as above
Method in brief: as §1

HGGX6 [8] = H3.3 G34R paediatric high-grade glioma line; experiment: as above
Method in brief: as §1

SUDIPGXXI [9] = diffuse intrinsic pontine glioma line; experiment: as above
Method in brief: as §1

HGGX42 [10] = H3.3 G34R paediatric high-grade glioma line; experiment: as above
Method in brief: as §1

SUDIPGXIX [11] = diffuse intrinsic pontine glioma line; experiment: as above
Method in brief: as §1

HGGX2 [12] = paediatric high-grade glioma line; experiment: as above
Method in brief: as §1

SUDIPGIV [13] = diffuse intrinsic pontine glioma line; experiment: as above
Method in brief: as §1

SUDIPGXVII [14] = diffuse intrinsic pontine glioma line; experiment: as above
Method in brief: as §1

DIPGX9 [15] = experiment: area under dose-response curve of % growth inhibition (log2 RLU vs DMSO / staurosporine), 1e-11 to 1e-4 M (% x log10 M); higher = more growth inhibition
Method in brief: (§2)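 Patient-derived pHGG/DIPG cell lines and astrocytes were plated in 384-well plates coated with 1% Geltrex and treated in triplicate with a 10-point threefold dilution series whose mean top concentration was 35 μM, for 7 days (3 days for iAstro) at 37 °C and 5% CO2. CellTiter-Glo luminescence was log2-transformed and scaled on each plate to % activity between solvent and positive controls. Area under the curve came from the trapezoid rule applied to a fitted log-logistic curve, or to a smoothing spline where the sigmoid fit failed.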

DIPGX7 [16] = experiment: as above
Method in brief: as §2

DIPGX37 [17] = experiment: as above
Method in brief: as §2

iAstro [18] = experiment: as above
Method in brief: as §2

HGGX39 [19] = experiment: as above
Method in brief: as §2

HABS [20] = experiment: as above
Method in brief: as §2

SUDIPGXIII [21] = experiment: as above
Method in brief: as §2

HGGX6 [22] = experiment: as above
Method in brief: as §2

SUDIPGXXI [23] = experiment: as above
Method in brief: as §2

HGGX42 [24] = experiment: as above
Method in brief: as §2

SUDIPGXIX [25] = experiment: as above
Method in brief: as §2

HGGX2 [26] = experiment: as above
Method in brief: as §2

SUDIPGIV [27] = experiment: as above
Method in brief: as §2

SUDIPGXVII [28] = experiment: as above
Method in brief: as §2

Row | Compound | maximal growth inhibition (DIPGX9 [1]) [%] | maximal growth inhibition (DIPGX7 [2]) [%] | maximal growth inhibition (SUDIPGVI) [%] | maximal growth inhibition (DIPGX37 [3]) [%] | maximal growth inhibition (iAstro [4]) [%] | maximal growth inhibition (HGGX39 [5]) [%] | maximal growth inhibition (HABS [6]) [%] | maximal growth inhibition (DIPGX29) [%] | maximal growth inhibition (SUDIPGXIII [7]) [%] | maximal growth inhibition (HGGX6 [8]) [%] | maximal growth inhibition (SUDIPGXXI [9]) [%] | maximal growth inhibition (HGGX42 [10]) [%] | maximal growth inhibition (SUDIPGXIX [11]) [%] | maximal growth inhibition (HGGX2 [12]) [%] | maximal growth inhibition (SUDIPGIV [13]) [%] | maximal growth inhibition (SUDIPGXVII [14]) [%] | area under dose-response curve (DIPGX9 [15]) | area under dose-response curve (DIPGX7 [16]) | area under dose-response curve (DIPGX37 [17]) | area under dose-response curve (iAstro [18]) | area under dose-response curve (HGGX39 [19]) | area under dose-response curve (HABS [20]) | area under dose-response curve (SUDIPGXIII [21]) | area under dose-response curve (HGGX6 [22]) | area under dose-response curve (SUDIPGXXI [23]) | area under dose-response curve (HGGX42 [24]) | area under dose-response curve (SUDIPGXIX [25]) | area under dose-response curve (HGGX2 [26]) | area under dose-response curve (SUDIPGIV [27]) | area under dose-response curve (SUDIPGXVII [28])
1 | Cc1c(C2CCN(CCc3ccccc3)CC2)noc1-c1ccc(Cl)cc1 [L-741,742] | 22.2 | 104 | 44.4 | 101 | 43.2 | 84 | 31.3 | 82.8 | 22.9 | 69.7 | 106 | 74.2 | 27.2 | 42.8 | 77.7 | 34.3 | 30.3 | 118 | 93.6 | 41.1 | 96.9 | 25.7 | 21.9 | 83.5 | 145 | 90.7 | 22.6 | 35.6 | 91.7 | 40.3
2 | CCCS(=O)(=O)c1nc(NC2CC2)cc(-c2ccc3c(ccn3C3CC(C)(C)NC(C)(C)C3)c2)n1 [NVS-1] | 88.9 | 95.1 | 88.4 | 79.6 | 83.2 | 82.8 | 86.9 | 82.2 | 88.4 | 79.3 | 104 | 88.2 | 90.7 | 86.7 | 90.5 | 88.4 | 152 | 166 | 159 | 143 | 130 | 124 | 163 | 145 | 140 | 185 | 174 | 169 | 138 | 154
3 | CC(=O)c1ccc2c(c1)c1cc(C(C)=O)ccc1n2CCNC(C)C [CBL-0137] | 106 | 99.2 | 92.3 | 101 | 23.8 | 104 | 74.4 | 94.2 | 96.5 | 88.7 | 113 | 91.8 | 98 | 83.4 | 96.8 | 97.5 | 218 | 137 | 199 | 57.3 | 148 | 155 | 123 | 122 | 277 | 154 | 223 | 134 | 156 | 129
4 | COC(=O)[C@]12CCC(C)(C)C[C@H]1[C@H]1C(=O)C=C3[C@@]4(C)C=C(C#N)C(=O)C(C)(C)[C@@H]4CC[C@@]3(C)[C@]1(C)CC2 [BARDOXOLONE METHYL] | 107 | 112 | 96.1 | 88.6 | 96.5 | 92.1 | 105 | 87.1 | 97 | 86.8 | 103 | 111 | 124 | 104 | 122 | 109 | 185 | 221 | 185 | 189 | 185 | 174 | 155 | 168 | 231 | 203 | 207 | 181 | 201 | 173
5 | COc1ccc(-c2nc(N3CCOCC3)c3sc(CN(C)c4ncc(C(=O)NO)cn4)cc3n2)cn1 [CUDC-907] | 108 | 97.5 | 98 | 119 | 73.6 | 112 | 129 | 106 | 109 | 102 | 122 | 105 | 119 | 103 | 113 | 107 | 368 | 294 | 331 | 181 | 325 | 299 | 188 | 264 | 470 | 315 | 346 | 298 | 319 | 294
6 | CCN(CC)CCNC(=O)c1c(C)[nH]c(/C=C2\C(=O)Nc3ccc(F)cc32)c1C [SUNITINIB] | 117 | 116 | 108 | 101 | 97.5 | 105 | 122 | 103 | 113 | 107 | 115 | 112 | 129 | 108 | 119 | 120 | 129 | 123 | 103 | 113 | 100 | 122 | 144 | 95.1 | 176 | 193 | 135 | 141 | 99.2 | 128
7 | CCOC(=O)CCNc1cc(N2CCc3ccccc3CC2)nc(-c2ccccn2)n1 [GSK-J4] | 94.2 | 46.7 | 44.1 | 56.1 | 69.4 | 63.1 | 72.9 | 69.6 | 48.1 | 62.6 | 112 | 100 | 98.3 | 100 | 61.5 | 55.2 | 103 | 46.8 | 67.7 | 97.7 | 62.2 | 71.4 | 61.1 | 63.1 | 213 | 87.1 | 104 | 100 | 62 | 54.8
8 | Nc1ccccc1NC(=O)c1ccc(CNc2nccc(-c3cccnc3)n2)cc1 [MOCETINOSTAT] | 103 | 104 | 97.2 | 96 | 38.2 | 96.8 | 94.6 | 78.5 | 74.1 | 84.8 | 126 | 78 | 100 | 96.5 | 104 | 93 | 232 | 147 | 146 | 70.7 | 133 | 135 | 117 | 129 | 319 | 115 | 147 | 165 | 175 | 155
